These results are taken from patent US20180325893A1, “SUBACUTE ADMINISTRATION OF NMDA MODULATORS ALONE OR IN COMBINATION” (Northwestern University, priority 2015, published 2018).

What all share (format): in vivo
Assay [1] concerns male C57BL/6J mice. Put plainly: NOR in subchronic PCP-treated mice (Example 2). The following applies: for preference for novel versus familiar object, retention trial: Example 2. The procedure: (§1) Three cohorts of male C57BL/6J mice (2½-3 month old, Jackson, Mass., USA), N=40, 45, and 48 were used in Examples 1, 2, 3 respectively. Mice were group housed (five/cage) in a controlled environment held at 21±2° C. and 50±15% relative humidity with a 14:10 h light-dark period (lights on: 05:00 am). All experiments were conducted during the light phase. Food and water were available ad libitum. The mice were habituated to the colony upon arrival for a week, during which time, they were not handled. All experiments were conducted in accordance with Institutional Animal Care and Use Committee of Northwestern University, Chicago.
(§2) Rapastinel was obtained from SAI Life Sciences (India). PCP was a generous gift from National Institute of Drug Abuse. Ketamine was purchased from Sigma Aldrich (St. Louis, Mo.). Lurasidone was provided by Sumitomo Dainippon Pharma Co., Ltd. (Osaka, Japan). Rapastinel, PCP, and ketamine were dissolved in 0.9% sterile saline (Sal). PCP and ketamine were administered intraperitoneally (ip), at a volume of 10 mL/kg body weight. Rapastinel was given intravenously (iv). The dose of rapastinel (1.0 mg/kg) was chosen because it produced optimal enhancement in learning in both young adult and aged rats and in a trace eye blink conditioning task in rabbits. […] The dose for lurasidone (0.1 mg/kg) was chosen based on prior NOR studies in C57BL/6J mice which determined the effective dose of lurasidone to restore NOR in subchronic PCP-treated mice.
(§3) For acute drug treatments, rapastinel (1.0 mg/kg, iv), lurasidone (0.1 mg/kg, i.p.) or ketamine (30 mg/kg, ip) were administered 30 min prior to the acquisition trial of the NOR task (described below) to the subchronic ketamine or subchronic PCP-treated animals. For subchronic drug treatments, 7-10 mice/cohort were randomly assigned to Sal, PCP, or ketamine. The Sal-treated mice received 0.9% NaCl; the drug treatment groups received either PCP (10 mg/kg; ip), or ketamine (30 mg/kg; ip) twice daily for 7 days. This was followed by a 7 day washout period during which time, mice were left undisturbed in the home cage until initiation of habituation (see below).
NOR testing in mice was slightly modified from Hashimoto et al (Hashimoto K.; Fujita Y.; Shimizu E.; Iyo M. European Journal of Pharmacology 2005, 519:114-7). […] Similar observations were made when large objects were used. […] It was observed that C57BL/6J mice explored less when the duration of trials were 3 or 5. […] The NOR apparatus consisted of an open box made of Plexiglas (52 cm L; 52 cm W; 31 cm H) with white walls and a solid floor. The box was positioned approximately 30 cm above the floor, centered on a table such that the overhead lights could not provide a spatial cue. One day after the 7 day washout from subchronic drug treatment or Sal, mice were habituated to the empty NOR arena, as a group, for one hour, on each of three days prior to the acquisition trial. During the acquisition trial, the mice were allowed to explore two identical objects (e.g. A1 and A2) for 10 min. This was followed by a 24-hour inter-trial interval, after which the mice were returned to the home cage. […] Behavior was recorded on video for blind scoring of object exploration. […] The discrimination index (DI) [(time spent exploring the novel object—time spent exploring the familiar object)/total exploration time] was then calculated for retention trials. […]

The test system of assay [2] is male C57BL/6J mice. Put plainly: Novel object recognition (NOR), acute drug treatment / acute ketamine-induced deficit (Example 1). Conditions: for discrimination index (DI) / NOR deficit: Example 1, FIG. 1; for preference for novel versus familiar object (exploration time), retention trial: Example 1. The procedure: as §1, §2, §3
(§4) NOR testing in mice was slightly modified from Hashimoto et al (Hashimoto K.; Fujita Y.; Shimizu E.; Iyo M. European Journal of Pharmacology 2005, 519:114-7). […] Similar observations were made when large objects were used. […] It was observed that C57BL/6J mice explored less when the duration of trials were 3 or 5. […] The NOR apparatus consisted of an open box made of Plexiglas (52 cm L; 52 cm W; 31 cm H) with white walls and a solid floor. The box was positioned approximately 30 cm above the floor, centered on a table such that the overhead lights could not provide a spatial cue. One day after the 7 day washout from subchronic drug treatment or Sal, mice were habituated to the empty NOR arena, as a group, for one hour, on each of three days prior to the acquisition trial. During the acquisition trial, the mice were allowed to explore two identical objects (e.g. A1 and A2) for 10 min. This was followed by a 24-hour inter-trial interval, after which the mice were returned to the home cage. During the retention trial, the mice were allowed to explore the familiar object (A) from the acquisition trial and a novel object (e.g. B). The location of the novel object in the retention trial was randomly assigned for each mouse tested using a pseudorandom schedule. […] Also, to avoid bias or olfactory trails, objects were used in triplicates, i.e. that the same object that was used in the acquisition trial was not presented in retention trial. Behavior was recorded on video for blind scoring of object exploration. Object exploration was defined as an animal licking, sniffing, or touching the object with the forepaws while sniffing. […] The discrimination index (DI) [(time spent exploring the novel object—time spent exploring the familiar object)/total exploration time] was then calculated for retention trials. […]

Assay [3] has as its system male C57BL/6J mice. Kind of assay: NOR in subchronic ketamine-treated mice (Examples 2 and 3). The procedure: as §1, §2, §3, §4
Setting [4] is: acute drug plus sal, rapastinel 1.0 mg/kg, ketamine 30 mg/kg.
Setting [5] is: acute drug plus sal, 30 min prior to acquisition trial, rapastinel 1.0 mg/kg iv, ketamine 30 mg/kg ip.

Each structure is given as a SMILES string. “Also recorded” adds a separate entry of the source. Peptide text beside a SMILES is read from it.

Regarding `c1ccc(C2(N3CCCCC3)CCCCC2)cc1` [PCP, reference compound], in assay [1] (Example 2, FIG. 2, subchronic PCP alone, compared to sal plus sal), the “discrimination index (DI)” value was “significantly reduced”. Besides, in assay [1] (subchronic PCP 10 mg/kg ip twice daily 7 days, 7 day washout), the “preference for novel versus familiar object, retention trial” value is reported as “abolished”.
`CNC1(c2ccccc2Cl)CCCCC1=O` (stereo not drawn) [ketamine, Ketamine, reference compound]: the “discrimination index (DI) / NOR deficit” value in assay [2] (setting [4]) is given as “induced a significant NOR deficit; also recorded: significantly reduced”. Further, in assay [2] (setting [5]), the “preference for novel versus familiar object (exploration time), retention trial” value is recorded as “abolished”. The “discrimination index (DI)” value in assay [3] (Example 2, FIG. 2, subchronic ketamine alone, compared to sal plus sal) was “significantly reduced”; in assay [3] (Example 3, FIG. 3, subchronic ketamine plus sal, compared to saline controls) it was “significant reductions in the DI”. For the same compound, the “preference for novel versus familiar object, retention trial” value was “abolished” in assay [3] (Example 2, subchronic ketamine 30 mg/kg ip twice daily 7 days, 7 day washout) and “abolished” in assay [3] (Example 3, subchronic ketamine alone).
With `CC(O)C(N)C(=O)N1CCCC1C(=O)N1CCCC1C(=O)NC(C(N)=O)C(C)O` (stereo not drawn) [rapastinel, Rapastinel] (H-TPPT-NH2; configuration not given here), the “discrimination index (DI) / NOR deficit” value in assay [2] (setting [4]) was “did not induce NOR deficit”; in assay [2] (rapastinel 1.0 mg/kg plus acute ketamine 30 mg/kg), “significantly prevented the acute ketamine-induced decrease in DI”; in assay [2] (rapastinel 1.0 mg/kg plus acute ketamine 30 mg/kg, listed as Rap), “significantly prevented the ket-induced NOR deficit”; in assay [1] (Example 2, FIG. 2, acute rapastinel 1.0 mg/kg in subchronic PCP-treated mice) it was “significantly increased”; in assay [1] (Example 2, FIG. 2, acute rapastinel 1.0 mg/kg in subchronic PCP-treated mice, listed as rap), “significantly reversed”; in assay [3] (Example 2, FIG. 2, acute rapastinel 1.0 mg/kg in subchronic ketamine-treated mice), “significantly increased”. Moreover, the “discrimination index (DI) / NOR deficit” value is recorded as “significantly reversed” in assay [3] (Example 2, FIG. 2, acute rapastinel 1.0 mg/kg in subchronic ketamine-treated mice, listed as rap) and “neither drug above at these doses was effective; also recorded: significant reductions in the DI” in assay [3] (Example 3, FIG. 3, subchronic ketamine-treated mice given sub-effective dose rapastinel 0.3 mg/kg and/or sub-effective dose lurasidone 0.1 mg/kg). Further, the “preference for novel versus familiar object (exploration time), retention trial” value in assay [2] (setting [5]) was “showed a clear preference for the novel compared to the familiar object”; in assay [2] (rapastinel 1.0 mg/kg prior to acute ketamine 30 mg/kg) it was “showed clear preference for the novel compared to the familiar object”. In addition, the “preference for novel versus familiar object, retention trial” value in assay [1] (acute rapastinel 1.0 mg/kg in subchronic PCP-treated mice) is given as “explored the novel object significantly more compared to the familiar object”; in assay [3] (Example 2, acute rapastinel 1.0 mg/kg in subchronic ketamine-treated mice) it was “explored the novel object significantly more compared to the familiar object”; in assay [3] (Example 3, subchronic ketamine-treated mice given sub-effective dose rapastinel 0.3 mg/kg and/or sub-effective dose lurasidone 0.1 mg/kg) it was “abolished”.
